Consider 27 compounds from patent US20250333424A1, “ANTIVIRAL COMPOUNDS” (Gilead Sciences, Inc., priority 2024, published 2025).

pEC50: −log10 of the molar value.

The test system of the assay is monocytic THP1 cells infected with HIV VSV-G pseudotyped GFP-NEF reporter virus. The assay can be described thus: cells. The assay is classed as cell-based. The conditions noted are these: Human immunodeficiency virus 1, THP-1, 24 h.
For orientation: pEC50 means the negative decadic logarithm of the EC50, by convention in mol/L. `Cc1cc(/C=C/C#N)cc(C)c1Oc1nc(NC23CC(C#N)(C2)C3)nc2c1C(O)(CF)NC2=O` (stereo not drawn) [Compound 265, (E)-3-((4-(4-(2-cyanovinyl)-2,6-dimethylphenoxy)-5-(fluoromethyl)-5-hydroxy-7-oxo-6,7-dihydro-5H-pyrrolo[3,4-d]pyrimidin-2-yl)amino)bicyclo[1.1.1]pentane-1-carbonitrile] had a pEC50 of 7.06.

With `Cc1cc(/C=C/C#N)cc(C)c1Oc1nc(NC23CC(C#N)(C2)C3)nc2nc(Nc3cccnc3)[nH]c12` [Compound 69, (E)-3-((6-(4-(2-cyanovinyl)-2,6-dimethylphenoxy)-8-(pyridin-3-ylamino)-7H-purin-2-yl)amino)bicyclo[1.1.1]pentane-1-carbonitrile], the pEC50 is 6.30.

`Cc1cc(/C=C/C#N)cc(C)c1Oc1nc(NC23CC(C#N)(C2)C3)nc2nn(CCO)cc12` [Compound 305, (E)-3-((4-(4-(2-cyanovinyl)-2,6-dimethylphenoxy)-2-(2-hydroxyethyl)-2H-pyrazolo[3,4-d]pyrimidin-6-yl)amino)bicyclo[1.1.1]pentane-1-carbonitrile] showed a pEC50 of 7.35.

Compound `Cc1cc(/C=C/C#N)cc(C)c1Oc1nc(NC23CC(C#N)(C2)C3)nc2c1C(C)N(Cc1nccn1C)C2=O` (stereo not drawn) [Example 213, (E)-3-((4-(4-(2-cyanovinyl)-2,6-dimethylphenoxy)-5-methyl-6-((1-methyl-1H-imidazol-2-yl)methyl)-7-oxo-6,7-dihydro-5H-pyrrolo[3,4-d]pyrimidin-2-yl)amino)bicyclo[1.1.1]pentane-1-carbonitrile] gave a pEC50 of 7.36. This pEC50 and that of the compound before are within 0.2 log units of each other.

With `Cc1cc(/C=C/C#N)cc(C)c1Oc1nc(NC23CC(C#N)(C2)C3)nc2c1[C@@H](C)N(c1cnn(C)c1)C2=O` [Compound 313, (R,E)-3-((4-(4-(2-cyanovinyl)-2,6-dimethylphenoxy)-5-methyl-6-(1-methyl-1H-pyrazol-4-yl)-7-oxo-6,7-dihydro-5H-pyrrolo[3,4-d]pyrimidin-2-yl)amino)bicyclo[1.1.1]pentane-1-carbonitrile], the pEC50 is 6.33.

`Cc1cc(/C=C/C#N)cc(C)c1Oc1nc(NC23CC(C#N)(C2)C3)nc2c1C(C)N(c1cnn3c1CCC3)C2=O` (stereo not drawn) [Example 225, (E)-3-((4-(4-(2-cyanovinyl)-2,6-dimethylphenoxy)-6-(5,6-dihydro-4H-pyrrolo[1,2-b]pyrazol-3-yl)-5-methyl-7-oxo-6,7-dihydro-5H-pyrrolo[3,4-d]pyrimidin-2-yl)amino)bicyclo[1.1.1]pentane-1-carbonitrile] showed a pEC50 of 7.29.

`Cc1cc(/C=C/C#N)cc(C)c1Oc1nc(NC23CC(C#N)(C2)C3)nc2c1C(C)(O)N(C)C2=O` (stereo not drawn) [Compound 141, (E)-3-((4-(4-(2-cyanovinyl)-2,6-dimethylphenoxy)-5-hydroxy-5,6-dimethyl-7-oxo-6,7-dihydro-5H-pyrrolo[3,4-d]pyrimidin-2-yl)amino)bicyclo[1.1.1]pentane-1-carbonitrile] gave a pEC50 of 7.14.

For `Cc1cc(/C=C/C#N)cc(C)c1Oc1nc(NC23CC(C#N)(C2)C3)nc2c1[C@@H](C)N(C1CC1)C2=O` [Compound 180, (R,E)-3-((4-(4-(2-cyanovinyl)-2,6-dimethylphenoxy)-6-cyclopropyl-5-methyl-7-oxo-6,7-dihydro-5H-pyrrolo[3,4-d]pyrimidin-2-yl)amino)bicyclo[1.1.1]pentane-1-carbonitrile], the pEC50 was 7.03.

`Cc1cc(/C=C/C#N)cc(C)c1Oc1nc(NC23CC(C#N)(C2)C3)nc2nn(CC(F)(F)F)c(C)c12` [Compound 84, (E)-3-((4-(4-(2-cyanovinyl)-2,6-dimethylphenoxy)-3-methyl-2-(2,2,2-trifluoroethyl)-2H-pyrazolo[3,4-d]pyrimidin-6-yl)amino)bicyclo[1.1.1]pentane-1-carbonitrile] gave a negative logarithm of the EC50 (pEC50) of 6.43.

`CCn1cc2c(Oc3c(C)cc(/C=C/C#N)cc3C)nc(NC34CC(C#N)(C3)C4)nc2n1` [Compound 143, 3-[[4-[4-[(E)-2-cyanovinyl]-2,6-dimethyl-phenoxy]-2-ethyl-pyrazolo[3,4-d]pyrimidin-6-yl]amino]bicyclo[1.1.1]pentane-1-carbonitrile] showed a pEC50 of 7.23. This pEC50 lies 0.80 log units higher than the previous one.

In the case of `Cc1cc(/C=C/C#N)cc(C)c1Oc1nc(NC23CC(C#N)(C2)C3)nc2nc(-c3ccn(C)n3)[nH]c12` [Compound 65, (E)-3-((6-(4-(2-cyanovinyl)-2,6-dimethylphenoxy)-8-(1-methyl-1H-pyrazol-3-yl)-7H-purin-2-yl)amino)bicyclo[1.1.1]pentane-1-carbonitrile], the pEC50 was 6.88.

As for `Cc1cc(/C=C/C#N)cc(C)c1Oc1nc(NC23CC(C#N)(C2)C3)nc2nn(C3CCOC3)cc12` [Example 233, (R,E)-3-((4-(4-(2-cyanovinyl)-2,6-dimethylphenoxy)-2-(tetrahydrofuran-3-yl)-2H-pyrazolo[3,4-d]pyrimidin-6-yl)amino)bicyclo[1.1.1]pentane-1-carbonitrile], the pEC50 is 6.80.

For the compound `Cn1cc2c(Oc3c(F)cc(/C=C/C#N)cc3Cl)nc(NC34CC(C#N)(C3)C4)nc2n1` [Compound 5, (E)-3-((4-(2-chloro-4-(2-cyanovinyl)-6-fluorophenoxy)-2-methyl-2H-pyrazolo[3,4-d]pyrimidin-6-yl)amino)bicyclo[1.1.1]pentane-1-carbonitrile], the negative-log EC50 (pEC50) was 7.58.

As for `Cc1cc(/C=C/C#N)cc(C)c1Oc1nc(NC23CC(C#N)(C2)C3)nc2nn(C3CC3)cc12` [Compound 144, (E)-3-((4-(4-(2-cyanovinyl)-2,6-dimethylphenoxy)-2-cyclopropyl-2H-pyrazolo[3,4-d]pyrimidin-6-yl)amino)bicyclo[1.1.1]pentane-1-carbonitrile], the pEC50 is 7.09.

Consider `Cc1cc(/C=C/C#N)cc(C)c1Oc1nc(NC23CC(C#N)(C2)C3)nc2c1[C@H]1OC[C@H](F)CN1C2=O` (single isomer, unassigned) [Compound 281], for which the pEC50 was 7.13.

As to `CCn1cc(N2C(=O)c3nc(NC45CC(C#N)(C4)C5)nc(Oc4c(C)cc(/C=C/C#N)cc4C)c3C2C)cn1` (stereo not drawn) [Example 218, (E)-3-((4-(4-(2-cyanovinyl)-2,6-dimethylphenoxy)-6-(1-ethyl-1H-pyrazol-4-yl)-5-methyl-7-oxo-6,7-dihydro-5H-pyrrolo[3,4-d]pyrimidin-2-yl)amino)bicyclo[1.1.1]pentane-1-carbonitrile], the negative logarithm of the EC50 (pEC50) is 7.33.

For the compound `Cc1cc(/C=C/C#N)c(C(F)(F)F)c(C)c1Oc1nc(NC23CC(C#N)(C2)C3)nc2nn(C)cc12` [Compound 4, (E)-3-((4-(4-(2-cyanovinyl)-2,6-dimethyl-3-(trifluoromethyl)phenoxy)-2-methyl-2H-pyrazolo[3,4-d]pyrimidin-6-yl)amino)bicyclo[1.1.1]pentane-1-carbonitrile], the pEC50 is 5.83.

`Cc1cc(/C=C/C#N)cc(C)c1Oc1nc(NC23CC(C#N)(C2)C3)nc2nc3n(c12)C[C@H](C)CO3` [Compound 185, (S,E)-3-((4-(4-(2-cyanovinyl)-2,6-dimethylphenoxy)-7-methyl-7,8-dihydro-6H-[1,3]oxazino[2,3-f]purin-2-yl)amino)bicyclo[1.1.1]pentane-1-carbonitrile]: the negative-log EC50 (pEC50) was 7.65.

For `Cc1cc(/C=C/C#N)cc(C)c1Oc1nc(NC23CC(C#N)(C2)C3)nc2nc(C)n(Cc3ccn[nH]3)c12` (single isomer, unassigned) [Compound 18, (E)-3-((7-((1H-pyrazol-5-yl)methyl)-6-(4-(2-cyanovinyl)-2,6-dimethylphenoxy)-8-methyl-7H-purin-2-yl)amino)bicyclo[1.1.1]pentane-1-carbonitrile], the negative logarithm of the EC50 (pEC50) was 7.62. This pEC50 and that of the compound before are within 0.2 log units of each other.

On to `Cc1cc(/C=C/C#N)cc(C)c1Oc1nc(NC23CC(C#N)(C2)C3)nc2c1C(O)NC2=O` (stereo not drawn) [Compound 286, (E)-3-((4-(4-(2-cyanovinyl)-2,6-dimethylphenoxy)-5-hydroxy-7-oxo-6,7-dihydro-5H-pyrrolo[3,4-d]pyrimidin-2-yl)amino)bicyclo[1.1.1]pentane-1-carbonitrile], for which the pEC50 was 7.14.

As for `Cc1cc(/C=C/C#N)cc(C)c1Oc1nc(NC23CC(C#N)(C2)C3)nc2nc(C3CCCCC3)[nH]c12` [Compound 51, (E)-3-((6-(4-(2-cyanovinyl)-2,6-dimethylphenoxy)-8-cyclohexyl-7H-purin-2-yl)amino)bicyclo[1.1.1]pentane-1-carbonitrile], the pEC50 is 6.43. This pEC50 lies 0.71 log units lower than the previous one.

Compound `Cc1cc(/C=C/C#N)cc(C)c1Oc1nc(NC23CC(C#N)(C2)C3)nc2c1[C@@H]1OC[C@H](F)CN1C2=O` (single isomer, unassigned) [Compound 282] had a pEC50 of 7.30. This pEC50 lies 0.87 log units higher than the previous one.

As to `Cc1cc(/C=C/C#N)cc(C)c1Oc1nc(NC23CC(C#N)(C2)C3)nc2c1[C@H](C)N(c1cn[nH]c1)C2=O` [Example 228, (S,E)-3-((4-(4-(2-cyanovinyl)-2,6-dimethylphenoxy)-5-methyl-7-oxo-6-(1H-pyrazol-4-yl)-6,7-dihydro-5H-pyrrolo[3,4-d]pyrimidin-2-yl)amino)bicyclo[1.1.1]pentane-1-carbonitrile], the pEC50 is 7.14.

The compound `Cc1cc(/C=C/C#N)cc(C)c1Oc1nc(NC23CC(C#N)(C2)C3)nc2c1[C@H](C)N(C1CC1)C2=O` [Compound 181, (S,E)-3-((4-(4-(2-cyanovinyl)-2,6-dimethylphenoxy)-6-cyclopropyl-5-methyl-7-oxo-6,7-dihydro-5H-pyrrolo[3,4-d]pyrimidin-2-yl)amino)bicyclo[1.1.1]pentane-1-carbonitrile] gave a pEC50 of 7.69.

`Cc1cc(/C=C/C#N)cc(C)c1Oc1nc(NC23CC(C#N)(C2)C3)nc2c1C1(C)OC[C@@H](C)CN1C2=O` (single isomer, unassigned) [Example 243] had a pEC50 of 6.66.

The compound `Cc1cc(/C=C/C#N)cc(C)c1Oc1nc(NC23CC(C#N)(C2)C3)nc2c1/C(=C/F)NC2=O` [Compound 266, 3-(((Z)-4-(4-((E)-2-cyanovinyl)-2,6-dimethylphenoxy)-5-(fluoromethylene)-7-oxo-6,7-dihydro-5H-pyrrolo[3,4-d]pyrimidin-2-yl)amino)bicyclo[1.1.1]pentane-1-carbonitrile] had a pEC50 of 7.21.

As to `Cc1cc(/C=C/C#N)cc(C)c1Oc1nc(NC23CC(C#N)(C2)C3)nc2occ(C)c12` [Compound 300, (E)-3-((4-(4-(2-cyanovinyl)-2,6-dimethylphenoxy)-5-methylfuro[2,3-d]pyrimidin-2-yl)amino)bicyclo[1.1.1]pentane-1-carbonitrile], the pEC50 was 7.06. The pEC50 values of the last two compounds are within 0.2 log units of each other.
